# Measured values taken from patent US20260184707A1, “PHARMACEUTICAL COMPOUNDS FOR THE TREATMENT OF COMPLEMENT MEDIATED DISORDERS” (ALEXION PHARMACEUTICALS, INC., priority 2022, published 2026).
# Target: T1, Human complement C1s enzyme (Homo sapiens, UniProt P09871)
# T1 construct: purified from human serum, Complement Technology, Inc; purchased Complement Technology, Inc; host or cells: human serum (plasma-derived native protein)
# T1 sequence (P09871 438-688 limits assumed): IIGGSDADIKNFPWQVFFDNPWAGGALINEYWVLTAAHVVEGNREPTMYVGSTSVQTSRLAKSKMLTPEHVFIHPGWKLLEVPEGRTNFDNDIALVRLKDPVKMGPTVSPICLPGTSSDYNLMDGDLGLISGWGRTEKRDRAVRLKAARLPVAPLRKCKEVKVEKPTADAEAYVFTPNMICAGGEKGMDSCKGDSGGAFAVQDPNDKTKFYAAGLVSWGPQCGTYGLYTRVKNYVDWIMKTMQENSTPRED
# T1 sequence (P09871 16-437 partner limits assumed): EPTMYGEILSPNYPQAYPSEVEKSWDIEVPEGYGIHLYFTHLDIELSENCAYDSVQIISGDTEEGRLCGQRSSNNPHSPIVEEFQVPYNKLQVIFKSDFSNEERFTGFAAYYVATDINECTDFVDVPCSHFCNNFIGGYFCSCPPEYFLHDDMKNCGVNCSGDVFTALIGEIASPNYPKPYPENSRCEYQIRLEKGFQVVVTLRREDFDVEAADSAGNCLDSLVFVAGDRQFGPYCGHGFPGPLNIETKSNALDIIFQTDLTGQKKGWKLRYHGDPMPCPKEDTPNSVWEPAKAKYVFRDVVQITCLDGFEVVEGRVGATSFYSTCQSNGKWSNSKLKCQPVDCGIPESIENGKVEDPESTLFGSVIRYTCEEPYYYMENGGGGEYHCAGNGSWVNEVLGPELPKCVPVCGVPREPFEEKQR
# Assay: Human C1s enzyme assay
# Type: biochemical
# Conditions: human complement C1s enzyme 1.16 nM, substrate Z-L-Lys-SBzl, A405; read-out: IC50 (Stars)
# In short: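 Serum-purified human C1s (1.16 nM final) preincubated 5 min at room temperature with compound in 50 mM Tris, 1 M NaCl, pH 7.5. Z-L-Lys-SBzl and DTNB added at 100 μM each; A405 recorded every 30 s. IC50 from nonlinear regression of reaction rates versus compound concentration.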
row,IC50,SMILES
1,< 100 nM,"O=C(Cn1c(-c2ccc(OC3COC3)cc2)ncc(NCc2ccc3c(c2)-c2ccccc2C3(F)F)c1=O)NCc1cc2cnccc2[nH]1 [Compound 138, N-((1H-pyrrolo[3,2-c]pyridin-2-yl)methyl)-2-(5-(((9,9-difluoro-9H-fluoren-3-yl)meth-yl)amino)-2-(4-(oxetan-3-yl-oxy)phenyl)-6-oxopyrimidin-1(6H)-yl)acetamide]"
2,< 100 nM,"O=C(Cn1c(-c2ccccc2)ncc(NC(=O)c2ccc(Oc3ccccc3)nc2)c1=O)NCc1cc2cnccc2[nH]1 [Compound 74, N-(1-(2-(((1H-pyrrolo[3,2-c]pyridin-2-yl)methyl)amino)-2-oxoethyl)-6-oxo-2-phenyl-1,6-dihydropyrimidin-5-yl)-6-phenoxynicotinamide]"
3,< 100 nM,"O=C(Cn1c(-c2ccccc2)ncc(NC(=O)c2ccc(-c3ccc(OC(F)(F)F)cc3)cc2)c1=O)NCc1cc2cnccc2[nH]1 [Compound 164, N-(1-(2-(((1H-pyrrolo[3,2-c]pyridin-2-yl)methyl)amino)-2-oxoethyl)-6-oxo-2-phenyl-1,6-dihydropyrimidin-5-yl)-4′-(trifluoromethoxy)-[1,1′-biphenyl]-4-carboxamide]"
4,< 100 nM,"Cc1nc(-c2ccccc2)n(CC(=O)NCc2cc3cnccc3[nH]2)c(=O)c1NCc1ccc2oc3ccccc3c2c1 [Compound 337, N-((1H-pyrrolo[3,2-c]pyridin-2-yl)methyl)-2-(5-((dibenzo [b,d]furan-2-ylmethyl)amino)-4-methyl-6-oxo-2-phenylpyr-imidin-1(6H)-yl)acetamide]"
5,> 1000 nM,"C[C@H](C(=O)NCc1cc2cnccc2[nH]1)n1c(-c2ccccc2F)ncc(N[C@H](C)c2ccc3oc4ccccc4c3c2)c1=O (single isomer, unassigned) [Compound 364, (R*)—N-((1H-pyrrolo[3,2-c]pyridine-2-yl)methyl)-2-(5-(((R)-1-(dibenzo[b,d]furan-2-yl)ethyl)amino)-2-(2-fluorophenyl)-6-oxopyrimidin-1(6H)-yl)propenamide]"
6,< 100 nM,"O=C(Cn1c(N2CCCCC2)cnc(NCc2nnc(-c3ccccc3)s2)c1=O)NCc1cc2cnccc2[nH]1 [Compound 472, N-((1H-pyrrolo[3,2-c]pyridin-2-yl)methyl)-2-(2-oxo-3-(((5-phenyl-1,3,4-thiadiazol-2-yl)-methyl)amino)-6-(piperidin-1-yl)pyrazin-1(2H)-yl)acetamide]"
7,< 100 nM,"O=C(Cn1c(-c2ccccc2)ncc(NC(=O)c2ccc(-c3ccc(F)cc3)cc2)c1=O)NCc1cc2cnccc2[nH]1 [Compound 99, N-(1-(2-(((1H-pyrrolo[3,2-c]pyridin-2-yl)methyl)amino)-2-oxoethyl)-6-oxo-2-phenyl-1,6-dihydropyrimidin-5-yl)-4′-fluoro-[1,1′-biphenyl]-4-carboxamide]"
8,< 100 nM,"C[C@@H](Nc1cnc(-c2cscn2)n(CC(=O)NCc2cc3cnccc3[nH]2)c1=O)c1ccc2oc3ccccc3c2c1 [Compound 339, (R)-N-((1H-pyrrolo[3,2-c]pyridin-2-yl)methyl)-2-(5-((1-(dibenzo[b,d]furan-2-yl)ethyl)-amino)-6-oxo-2-(thiazol-4-yl)-pyrimidin-1(6H)-yl)acetamide]"
9,< 100 nM,"O=C(Cn1c(-c2ccccc2)ncc(NC(=O)c2n[nH]c(-c3ccccc3)n2)c1=O)NCc1cc2cnccc2[nH]1 [Compound 221, N-(1-(2-(((1H-pyrrolo[3,2-c]pyridine-2-yl)methyl)amino)-2-oxoethyl)-6-oxo-2-phenyl-1,6-dihydropyrimidin-5-yl)-5-phenyl-1H-1,2,4-triazole-3-carboxamide]"
10,< 100 nM,"O=C(Cn1c(-c2ccccc2)ncc(NC(=O)c2cnc(-c3ccccc3)[nH]2)c1=O)NCc1cc2cnccc2[nH]1 [Compound 168, N-(1-(2-(((1H-pyrrolo[3,2-c]pyridin-2-yl)methyl)amino)-2-oxoethyl)-6-oxo-2-phenyl-1,6-dihydropyrimidin-5-yl)-2-phenyl-1H-imidazole-5-carbox-amide]"
11,100 to 1000 nM,"C[C@@H]1CN(c2ncc(N[C@H](C)c3ccc4oc5ccccc5c4c3)c(=O)n2CC(=O)NCc2cc3cnccc3[nH]2)C[C@@H](C)O1 [Compound 355, N-((1H-pyrrolo[3,2-c]pyridin-2-yl)methyl)-2-(5-(((R)-1-(dibenzo[b,d]furan-2-yl)ethyl)-amino)-2-((2R,6R)-2,6-dimeth-ylmorpholino)-6-oxopyrimidin-1(6H)-yl)acetamide]"
12,< 100 nM,"C[C@@H](Nc1cnc(-c2ccncc2)n(CC(=O)NCc2cc3cnccc3[nH]2)c1=O)c1ccc2oc3ccccc3c2c1 [Compound 334, (R)-N-((1H-pyrrolo[3,2-c]pyridin-2-yl)methyl)-2-(5-((1-(dibenzo[b,d]furan-2-yl)ethyl)-amino)-6-oxo-2-(pyridin-4-yl)-pyrimidin-1(6H)-yl)acetamide]"
13,< 100 nM,"C[C@H](Nc1nccn(CC(=O)NCc2cc3cnccc3[nH]2)c1=O)c1ccc2oc3ccccc3c2c1 [Compound 299, (S)—N-((1H-pyrrolo[3,2-c]pyridine-2-yl)methyl)-2-(3-((1-(dibenzo[b,d]furan-2-yl)ethyl)amino)-2-oxopyrazin-1(2H)-yl)acetamide]"
14,< 100 nM,"O=C(Cn1c(-c2ccccc2)cnc(NCCCc2ccccc2)c1=O)NCc1cc2cnccc2[nH]1 [Compound 17, N-((1H-pyrrolo[3,2-c]pyridin-2-yl)methyl)-2-(2-oxo-6-phen-yl-3-((3-phenylpropyl)amino)-pyrazin-1(2H)-yl)acetamide]"
15,100 to 1000 nM,"C[C@@H]1CN(c2ncc(N[C@H](C)c3ccc4oc5ccccc5c4c3)c(=O)n2CC(=O)NCc2cc3cnccc3[nH]2)C[C@H](C)O1 [Compound 305, N-((1H-pyrrolo[3,2-c]pyridin-2-yl)methyl)-2-(5-(((R)-1-(dibenzo[b,d]furan-2-yl)ethyl)-amino)-2-((2S,6R)-2,6-dimeth-ylmorpholino)-6-oxopyrimidin-1(6H)-yl)acetamide]"
16,< 100 nM,"C[C@@H](Nc1cnc(N2CCCCC2)n(CC(=O)NCc2cc3cnccc3[nH]2)c1=O)c1ncc(-c2ccccc2)o1 [Compound 488, (R)-N-((1H-pyrrolo[3,2-c]pyridin-2-yl)methyl)-2-(6-oxo-5-((1-(5-phenyloxazol-2-yl)-ethyl)amino)-2-(piperidin-1-yl)pyrimidin-1(6H)-yl)acet-amide]"
17,< 100 nM,"O=C(Cn1c(-c2ccccc2)ncc(NC(=O)c2ccc(-c3ccccc3)o2)c1=O)NCc1cc2cnccc2[nH]1 [Compound 206, N-(1-(2-(((1H-pyrrolo[3,2-c]pyridin-2-yl)methyl)amino)-2-oxoethyl)-6-oxo-2-phenyl-1,6-dihydropyrimidin-5-yl)-5-phen-ylfuran-2-carboxamide]"
18,< 100 nM,"Cc1cc(F)cc(C)c1Nc1cnc(-c2ccccc2)n(CC(=O)NCc2cc3cnccc3[nH]2)c1=O [Compound 244, N-((1H-pyrrolo[3,2-c]pyridin-2-yl)methyl)-2-(5-((4-fluoro-2,6-dimethylphenyl)amino)-6-oxo-2-phenylpyrimidin-1(6H)-yl)acetamide]"
19,> 1000 nM,"O=C(Cn1c(-c2ccccc2)ncc(NC(=O)c2ccc(-c3ccccc3)s2)c1=O)Nc1nc2cnccc2s1 [Compound 235, N-(6-ox0-1-(2-oxo-2-(thiazolo [4,5-c]pyridin-2-ylamino)-ethyl)-2-phenyl-1,6-dihydro-pyrimidin-5-yl)-5-phenylthio-phene-2-carboxamide]"
20,< 100 nM,"O=C(Cn1c(-c2ccc(S(F)(F)(F)(F)F)cc2)ncc(NCc2ccc3c(c2)-c2ccccc2C3(F)F)c1=O)NCc1cc2cnccc2[nH]1 [Compound 255, N-((1H-pyrrolo[3,2-c]pyridine-2-yl)methyl)-2-(5-(((9,9-difluoro-9H-fluoren-3-yl)methyl)amino)-6-oxo-2-(4-(pentafluoro-λ^6-sulfaneyl)phenyl)pyrimidin-1(6H)-yl)acetamide]"
21,< 100 nM,"C[C@@H](Nc1ncc(-c2ccccn2)n(CC(=O)NCc2cc3cnccc3[nH]2)c1=O)c1ccc2oc3ccccc3c2c1 [Compound 430, (R)-N-((1H-pyrrolo[3,2-c]pyridin-2-yl)methyl)-2-(3-((1-(dibenzo[b,d]furan-2-yl)ethyl)-amino)-2-oxo-6-(pyridin-2-yl)-pyrazin-1(2H)-yl)acetamide]"
22,< 100 nM,"N#Cc1ccc(CCCNc2cnc(-c3ccccc3)n(CC(=O)NCc3cc4cnccc4[nH]3)c2=O)cc1 [Compound 48, N-((1H-pyrrolo[3,2-c]pyridin-2-yl)methyl)-2-(5-((3-(4-cyanophenyl)propyl)amino)-6-oxo-2-phenylpyrimidin-1(6H)-yl)acetamide]"

row,SMILES,IC50
1,"C[C@@H](Nc1cnc(N2C[C@H]3C[C@@H](C2)C3)n(CC(=O)NCc2cc3cnccc3[nH]2)c1=O)c1ccc2oc3ccccc3c2c1 [Compound 387, N-((1H-pyrrolo[3,2-c]pyridin-2-yl)methyl)-2-(2-((1S,5S)-3-azabicyclo[3.1.1]heptan-3-yl)-5-(((R)-1-(dibenzo[b,d]furan-2-yl)ethyl)amino)-6-oxopyr-imidin-1(6H)-yl)acetamide]",100 to 1000 nM
